Experimental data: patent US8846928B2 (Portola Pharmaceuticals, Inc., priority 2010, dated 2014)

target: T1, full length active recombinant SYK enzyme (Homo sapiens, UniProt P43405); test: Inhibition of Syk tyrosine phosphorylation activity (LANCE TR-FRET kinase assay); type: biochemical
T1 construct: full length active recombinant SYK enzyme (Millipore, Calif.); purchased Millipore

Compound | IC50 [nM]
Cc1cc(Nc2nc(N[C@@H]3CCCC[C@@H]3N)c(F)cc2C(N)=O)ccc1F [Example 322, 6-((1R,2S)-2-aminocyclohexylamino)-5-fluoro-2-(4-fluoro-3-methylphenylamino)nicotinamide] | 1 to 10
Cc1ccc(Nc2nc(N[C@@H]3CCCC[C@@H]3N)c(F)cc2C(N)=O)cc1F [Example 323] | 1 to 10
NC(=O)c1cc(F)c(N[C@@H]2CCCC[C@@H]2N)nc1Nc1cc(F)cc(F)c1 [Example 324, 6-((1R,2S)-2-aminocyclohexylamino)-2-(3,5-difluorophenylamino)-5-fluoronicotinamide] | 1 to 10
NC(=O)c1cc(F)c(N[C@@H]2CCCC[C@@H]2N)nc1Nc1cc(F)cc(Cl)c1 [Example 325, 6-((1R,2S)-2-aminocyclohexylamino)-2-(3-chloro-5-fluorophenylamino)-5-fluoronicotinamide] | 1 to 10
COc1cc(F)cc(Nc2nc(N[C@@H]3CCCC[C@@H]3N)c(F)cc2C(N)=O)c1 [Example 326, 6-((1R,2S)-2-aminocyclohexylamino)-5-fluoro-2-(3-fluoro-5-methoxyphenylamino)nicotinamide] | < 1
Cn1ccc2c(Nc3nc(N[C@@H]4CCCC(F)(F)[C@@H]4N)c(F)cc3C(N)=O)cccc21 [Example 330, 6-((1R,2R)-2-amino-3,3-difluorocyclohexylamino)-5-fluoro-2-(1-methyl-1H-indol-4-ylamino)nicotinamide] | 10 to 100
Cc1cc(Nc2nc(N[C@@H]3CCCC(F)(F)[C@@H]3N)c(F)cc2C(N)=O)sn1 [Example 333, 6-((1R,2R)-2-amino-3,3-difluorocyclohexylamino)-5-fluoro-2-(3-methylisothiazol-5-ylamino)nicotinamide] | 100 to 1000
Cc1ccc(Nc2nc(N[C@@H]3CCCC(F)(F)[C@@H]3N)c(F)cc2C(N)=O)cc1 [Example 334, 6-((1R,2R)-2-amino-3,3-difluorocyclohexylamino)-5-fluoro-2-(p-tolylamino)nicotinamide] | 100 to 1000
NC(=O)c1cc(F)c(N[C@@H]2CCCC(F)(F)[C@@H]2N)nc1Nc1cc(F)cc(F)c1 [Example 337, 6-((1R,2R)-2-amino-3,3-difluorocyclohexylamino)-2-(3,5-difluorophenylamino)-5-fluoronicotinamide] | 100 to 1000
COc1cc(F)cc(Nc2nc(N[C@@H]3CCCC(F)(F)[C@@H]3N)c(F)cc2C(N)=O)c1 [Example 338, 6-((1R,2R)-2-amino-3,3-difluorocyclohexylamino)-5-fluoro-2-(3-fluoro-5-methoxyphenylamino)nicotinamide] | 100 to 1000
Cc1cc(F)cc(Nc2nc(N[C@@H]3CCCC(F)(F)[C@@H]3N)c(F)cc2C(N)=O)c1 [Example 339, 6-((1R,2R)-2-amino-3,3-difluorocyclohexylamino)-5-fluoro-2-(3-fluoro-5-methylphenylamino)nicotinamide] | 10 to 100
Cc1ccc(Nc2nc(N[C@@H]3CCOC[C@@H]3N)c(F)cc2C(N)=O)cc1 [Example 349, 6-((3R,4R)-3-aminotetrahydro-2H-pyran-4-ylamino)-5-fluoro-2-(p-tolylamino)nicotinamide] | 10 to 100
NC(=O)c1cc(F)c(N[C@@H]2CCNC2)nc1Nc1ccc2ncccc2c1 [Example 351, (R)-5-fluoro-6-(pyrrolidin-3-ylamino)-2-(quinolin-6-ylamino)nicotinamide] | 10 to 100
CC[C@H](Nc1nc(Nc2cccc(C)c2)c(C(N)=O)cc1F)C1(N)CC1 [Example 369, (S)-6-(1-(1-aminocyclopropyl)propylamino)-5-fluoro-2-(m-tolylamino)nicotinamide] | 100 to 1000
CC[C@H](Nc1nc(Nc2ccc(C)cc2)c(C(N)=O)cc1F)C1(N)CC1 [Example 370, (S)-6-(1-(1-aminocyclopropyl)propylamino)-5-fluoro-2-(p-tolylamino)nicotinamide] | > 1000
CC[C@H](Nc1nc(Nc2cccnc2)c(C(N)=O)cc1F)C1(N)CC1 [Example 371, (S)-6-(1-(1-aminocyclopropyl)propylamino)-5-fluoro-2-(pyridin-3-ylamino)nicotinamide] | > 1000
CC[C@@H](Nc1nc(Nc2cncc(F)c2)c(C(N)=O)cc1F)C1(N)CC1 [Example 373, (R)-6-(1-(1-aminocyclopropyl)propylamino)-5-fluoro-2-(5-fluoropyridin-3-ylamino)nicotinamide] | 10 to 100
Cc1cccc(Nc2nc(NC[C@@H](N)CC(F)F)c(F)cc2C(N)=O)c1 [Example 380, (S)-2-(m-toluidino)-6-(2-amino-4,4-difluorobutylamino)-5-fluoronicotinamide] | 10 to 100
Cc1ccc(Nc2nc(NC[C@@H](N)CC(F)F)c(F)cc2C(N)=O)cc1 [Example 381, (S)-2-(p-toluidino)-6-(2-amino-4,4-difluorobutylamino)-5-fluoronicotinamide] | 100 to 1000

The remaining lines, values ahead:

IC50 [nM] | Compound
100 to 1000 | NC(=O)c1cc(F)c(N[C@@H]2CCCC(F)(F)[C@@H]2N)nc1Nc1cccc2ncccc12 [Example 327, 6-((1R,2R)-2-amino-3,3-difluorocyclohexylamino)-5-fluoro-2-(quinolin-5-ylamino)nicotinamide]
10 to 100 | NC(=O)c1cc(F)c(N[C@@H]2CCCC(F)(F)[C@@H]2N)nc1Nc1ccc2ncsc2c1 [Example 328, 6-((1R,2R)-2-amino-3,3-difluorocyclohexylamino)-2-(benzo[d]thiazol-6-ylamino)-5-fluoronicotinamide]
100 to 1000 | NC(=O)c1cc(F)c(N[C@@H]2CCCC(F)(F)[C@@H]2N)nc1Nc1cccc2ncsc12 [Example 329, 6-((1R,2R)-2-amino-3,3-difluorocyclohexylamino)-2-(benzo[d]thiazol-7-ylamino)-5-fluoronicotinamide]
10 to 100 | Cn1ccc2cc(Nc3nc(N[C@@H]4CCCC(F)(F)[C@@H]4N)c(F)cc3C(N)=O)ccc21 [Example 331, 6-((1R,2R)-2-amino-3,3-difluorocyclohexylamino)-5-fluoro-2-(1-methyl-1H-indol-5-ylamino)nicotinamide]
100 to 1000 | Cc1cncc(Nc2nc(N[C@@H]3CCCC(F)(F)[C@@H]3N)c(F)cc2C(N)=O)c1 [Example 332, 6-((1R,2R)-2-amino-3,3-difluorocyclohexylamino)-5-fluoro-2-(5-methylpyridin-3-ylamino)nicotinamide]
10 to 100 | Cc1cccc(Nc2nc(N[C@@H]3CCCC(F)(F)[C@@H]3N)c(F)cc2C(N)=O)c1 [Example 335, 6-((1R,2R)-2-amino-3,3-difluorocyclohexylamino)-5-fluoro-2-(m-tolylamino)nicotinamide]
100 to 1000 | NC(=O)c1cc(F)c(N[C@@H]2CCCC(F)(F)[C@@H]2N)nc1Nc1cccc(Cl)c1 [Example 336, 6-((1R,2R)-2-amino-3,3-difluorocyclohexylamino)-2-(3-chlorophenylamino)-5-fluoronicotinamide]
1 to 10 | NC(=O)c1cc(F)c(N[C@H]2[C@@H](N)CCCC2(F)F)nc1Nc1cccc(-n2nccn2)c1 [Example 340]
1 to 10 | NC(=O)c1cc(F)c(N[C@H]2[C@@H](N)CCCC2(F)F)nc1Nc1cccc(-n2cccn2)c1 [Example 341, 2-(3-(1H-pyrazol-1-yl)phenylamino)-6-((1S,6S)-6-amino-2,2-difluorocyclohexylamino)-5-fluoronicotinamide]
10 to 100 | NC(=O)c1cc(F)c(N[C@H]2[C@@H](N)CCCC2(F)F)nc1Nc1cccc(-c2ncccn2)c1 [Example 342, 6-((1S,6S)-6-amino-2,2-difluorocyclohexylamino)-5-fluoro-2-(3-(pyrimidin-2-yl)phenylamino)nicotinamide]
1 to 10 | NC(=O)c1cc(F)c(N[C@H]2[C@@H](N)CCCC2(F)F)nc1Nc1ccc2ncccc2c1 [Example 343, 6-((1S,6S)-6-amino-2,2-difluorocyclohexylamino)-5-fluoro-2-(quinolin-6-ylamino)nicotinamide]
1 to 10 | NC(=O)c1cc(F)c(N[C@H]2[C@@H](N)CCCC2(F)F)nc1Nc1cnc2ccccc2c1 [Example 344, 6-((1S,6S)-6-amino-2,2-difluorocyclohexylamino)-5-fluoro-2-(quinolin-3-ylamino)nicotinamide]
1 to 10 | NC(=O)c1cc(F)c(N[C@H]2[C@@H](N)CCCC2(F)F)nc1Nc1ccc2ncsc2c1 [Example 345, 6-((1S,6S)-6-amino-2,2-difluorocyclohexylamino)-2-(benzo[d]thiazol-6-ylamino)-5-fluoronicotinamide]
10 to 100 | Cc1ccc(Nc2nc(N[C@H]3[C@@H](N)CCCC3(F)F)c(F)cc2C(N)=O)cc1 [Example 346]
10 to 100 | NC(=O)c1cc(F)c(N[C@H]2[C@@H](N)CCCC2(F)F)nc1Nc1cccnc1 [Example 347, 6-((1S,6S)-6-amino-2,2-difluorocyclohexylamino)-5-fluoro-2-(pyridin-3-ylamino)nicotinamide]
10 to 100 | NC(=O)c1cc(F)c(N[C@H]2[C@@H](N)CCCC2(F)F)nc1Nc1cncc(F)c1 [Example 348]
100 to 1000 | NC(=O)c1cc(F)c(NC2(C(N)=O)CCCC2)nc1Nc1cnc2ccccc2c1 [Example 376, 6-(1-carbamoylcyclopentylamino)-5-fluoro-2-(quinolin-3-ylamino)nicotinamide]
10 to 100 | NC(=O)c1cc(F)c(NC(CC(F)(F)F)C(N)=O)nc1Nc1cnc2ccccc2c1 (stereo not drawn) [Example 377, 6-(1-amino-4,4,4-trifluoro-1-oxobutan-2-ylamino)-5-fluoro-2-(quinolin-3-ylamino)nicotinamide]
> 1000 | NC(=O)c1cc(F)c(NC2(C(N)=O)CCCCC2)nc1Nc1cnc2ccccc2c1 [Example 378, 6-(1-carbamoylcyclohexylamino)-5-fluoro-2-(quinolin-3-ylamino)nicotinamide]
100 to 1000 | NC(=O)c1cc(F)c(NC2(C(N)=O)CCC2)nc1Nc1cnc2ccccc2c1 [Example 379, 6-(1-carbamoylcyclobutylamino)-5-fluoro-2-(quinolin-3-ylamino)nicotinamide]
